# Data: patent US5001158A, “Nitrosoureas compounds preparation thereof and utilization thereof in anticancerous” (Centre National de la Recherche Scientifique, priority 1990, dated 1991)
# Assays:
# leukemia L 1210 = assay: Antitumoral activity of A1 and A2 on leukemia L 1210 grafted i.p. in mice (ICIG); assay type: in vivo, mice (B6 D2 F1 OLA); conditions: for antitumoral activity (in words): isomers separately
# Procedure: This activity was also studied on mice carrying leukemia L 1210 grafted i.p. This experimental tumor is the one most frequently used in the primary screening of cytostatic drugs.
# These tests were conducted in parallel in two laboratories: at Unit 71 of the Institut National de la Sante et de la Recberche Mediecale (INSERM), ClermontFerrand, and at the Institut de Cancerologie et d' Immunogenetique (ICIG), Villejuif.
# On day D:0, three-month-old male B6 D2 F1 mice received 10^5 cells of the leukemia strain L 1210 by intraperitoneal administration. The animals are divided up into groups of 8 to 10 animals for the control groups and 6 to 8 animals for the treated groups. On days D:1, D:5 and D:9, the animals receive the treatment at different doses by intraperitoneal or intravenous administration. The CNCC is administered as a suspension in olive oil. The products according to the invention are administered in physiological serum. The mortality is recorded every day. The survival median was determined for the treated animals and the control animals. The results are considered to be positive if the index I= [formula] is greater than 125.
# The value .infin. means that 50% to 100% of the animals have survived to day D:90.
# The cytostatic activity oi A1 and A2 on leukemia L 1210 was evaluated on B6 D2 F1 OLA mice at ICIG.
# ICIG also studied the antitumoral activity of each isomer A1 and A2, separately administered intravenously, on leukemia L 1210. […] Comparison of the active doses with those of CNCC is impossible because of the insolubility of CNCC, as mentioned previously.
# [1] = Plasma concentrations of A1 and A2 after oral administration, mice; assay type: in vivo; conditions: mouse, n = 10; for concentration at 1.5 h: 1 H 30 MIN; for concentration: 3 H; for concentration at 4.5 h: 4 H 30 MIN; for concentration at 0.25 h: 15 MIN; for concentration at 0.5 h: 30 MIN; for concentration at 0.75 h: 45 MIN
# Procedure: (§1) The plasma absorption and clearance kinetics of the products A1 and A2 according to the invention were studied on different animal species after oral administration. A mixture A1 A2 in the proportions 70%/30% was used so as to be able to make a comparison with CNCC. The mixture A1 A2 and the CNCC were administered at equivalent doses and the plasma concentrations of A1 and A2 were measured as a function of time. cl (a) Experimental protocol
# (§2) A solution of the mixture A1 A2 in distilled water is administered by stomach tube at a dose of 574 mg/m^2. A suspension of CNCC in olive oil is administered at a dose of 500 mg/m^2, also by stomach tube.
# (§3) The blood, taken by cardiac puncture, is centrifuged rapidly at 4° C. The plasma (1 ml) is deposited on a cartridge of Extrelut® and extraction is carried out with 6 ml of methylene chloride. After evaporation, the dry extract is taken up in 150 μl of methylene chloride for chromatographic analysis.
# (§4) Analysis of the plasma extracts for measuring the concentrations of A1 and A2 was performed by high performance liquid chromatography using the following technology:
# (§5) Detector: Pye Unicam spectrophotometer (Philips)λ250 nm.
# (§6) Elution carried out by means of a linear gradient ranging from methylene chloride 99.6%/ethanol 0.4% to methylene chloride 95%/ethanol 5% in 15 minutes
# [2] = Plasma concentrations of A1 and A2 after oral administration, rabbits; assay type: in vivo; conditions: rabbit, n = 5; for concentration at 1.5 h: 1 H 30 MIN; for concentration: 3 H; for concentration at 4.5 h: 4 H 30 MIN; for concentration at 0.25 h: 15 MIN; for concentration at 0.5 h: 30 MIN; for concentration at 0.75 h: 45 MIN
# Procedure: as §1, §2, §3, §4, §5, §6
# [3] = Plasma concentrations of A1 and A2 after oral administration, rats; assay type: in vivo; conditions: rat, n = 5; for concentration at 1.5 h: 1 H 30 MIN; for concentration: 3 H; for concentration at 4.5 h: 4 H 30 MIN; for concentration at 0.25 h: 15 MIN; for concentration at 0.5 h: 30 MIN; for concentration at 0.75 h: 45 MIN
# Procedure: as §1, §2, §3, §4, §5, §6
# [4] = Pharmacokinetic comparison of mixture A1 A2 with CNCC, all animal species; assay type: in vivo, mice, rats and rabbits; conditions: p.o.; for plasma concentrations after A1 A2 compared with after CNCC (in words): equivalent doses, whatever the animal species
# Procedure: as §1, §2, §3, §4
# The plasma concentrations of A1 and A2 after oral administration of either the mixture A1 A2 or CNCC to mice, rats and rabbits are reported in Table V.
# [5] = after mixture A1 A2 574 mg/m^2 p.o.
compound,measurement,setting,value
C[S+]([O-])CCN(N=O)C(=O)NCCCl (centres unmarked) [Compound A1],T/C × 100 (cell: toxic),leukemia L 1210; 60 mg/kg i.v.,toxic
same,antitumoral activity (in words),leukemia L 1210; i.v.,low activity
same,concentration at 1.5 h,[1]; after CNCC 500 mg/m^2 p.o.,26.2 µM
same,concentration at 1 h,[1]; after CNCC 500 mg/m^2 p.o.,37.1 µM
same,concentration at 2 h,[1]; after CNCC 500 mg/m^2 p.o.,20.2 µM
same,concentration,[1]; after CNCC 500 mg/m^2 p.o.,11 µM
same,concentration at 4.5 h,[1]; after CNCC 500 mg/m^2 p.o.,6.5 µM
same,concentration at 5 min,[1]; after CNCC 500 mg/m^2 p.o.,13.7 µM
same,concentration at 0.25 h,[1]; after CNCC 500 mg/m^2 p.o.,34.2 µM
same,concentration at 0.5 h,[1]; after CNCC 500 mg/m^2 p.o.,71.4 µM
same,concentration at 0.75 h,[1]; after CNCC 500 mg/m^2 p.o.,32.8 µM
same,concentration at 1.5 h,[1]; [5],35.4 µM
same,concentration at 1 h,[1]; [5],88 µM
same,concentration at 2 h,[1]; [5],23.3 µM
same,concentration,[1]; [5],10.1 µM
same,concentration at 4.5 h,[1]; [5],4.3 µM
same,concentration at 5 min,[1]; [5],208 µM
same,concentration at 0.25 h,[1]; [5],206 µM
same,concentration at 0.5 h,[1]; [5],177 µM
same,concentration at 0.75 h,[1]; [5],124 µM
same,concentration at 1.5 h,[2]; after CNCC 500 mg/m^2 p.o.,8.6 µM
same,concentration at 2 h,[2]; after CNCC 500 mg/m^2 p.o.,7.4 µM
same,concentration,[2]; after CNCC 500 mg/m^2 p.o.,4.7 µM
same,concentration at 4.5 h,[2]; after CNCC 500 mg/m^2 p.o.,2.8 µM
same,concentration at 5 min,[2]; after CNCC 500 mg/m^2 p.o.,5 µM
same,concentration at 0.25 h,[2]; after CNCC 500 mg/m^2 p.o.,9.4 µM
same,concentration at 0.5 h,[2]; after CNCC 500 mg/m^2 p.o.,10.6 µM
same,concentration at 0.75 h,[2]; after CNCC 500 mg/m^2 p.o.,10 µM
same,concentration at 1.5 h,[2]; [5],27 µM
same,concentration at 1 h,[2]; [5],39.4 µM
same,concentration at 2 h,[2]; [5],19.4 µM
same,concentration,[2]; [5],10.6 µM
same,concentration at 4.5 h,[2]; [5],3.8 µM
same,concentration at 5 min,[2]; [5],26.7 µM
same,concentration at 0.25 h,[2]; [5],28.5 µM
same,concentration at 0.5 h,[2]; [5],41 µM
same,concentration at 0.75 h,[2]; [5],39.2 µM
same,concentration at 1.5 h,[3]; after CNCC 500 mg/m^2 p.o.,20.3 µM
same,concentration at 1 h,[3]; after CNCC 500 mg/m^2 p.o.,18.4 µM
same,concentration at 2 h,[3]; after CNCC 500 mg/m^2 p.o.,12.7 µM
same,concentration,[3]; after CNCC 500 mg/m^2 p.o.,11.1 µM
same,concentration at 4.5 h,[3]; after CNCC 500 mg/m^2 p.o.,3.9 µM
same,concentration at 5 min,[3]; after CNCC 500 mg/m^2 p.o.,2.8 µM
same,concentration at 0.25 h,[3]; after CNCC 500 mg/m^2 p.o.,8 µM
same,concentration at 0.5 h,[3]; after CNCC 500 mg/m^2 p.o.,12 µM
same,concentration at 0.75 h,[3]; after CNCC 500 mg/m^2 p.o.,14.8 µM
same,concentration at 1.5 h,[3]; [5],29.2 µM
same,concentration at 1 h,[3]; [5],32.9 µM
same,concentration at 2 h,[3]; [5],15.7 µM
same,concentration,[3]; [5],7.3 µM
same,concentration at 5 min,[3]; [5],22.3 µM
same,concentration at 0.25 h,[3]; [5],42.4 µM
same,concentration at 0.5 h,[3]; [5],52.9 µM
same,concentration at 0.75 h,[3]; [5],33.9 µM
same,bioavailability compared with CNCC (in words),[4],greater than that of CNCC
same,plasma concentrations after A1 A2 compared with after CNCC (in words),[4],much higher
C[S+]([O-])CCNC(=O)N(CCCl)N=O (centres unmarked) [Compound A2],T/C × 100,leukemia L 1210; 5 mg/kg i.v.,.infin. (50% to 100% of the animals have survived to day D:90)
same,T/C × 100,leukemia L 1210; 10 mg/kg i.v.,.infin. (50% to 100% of the animals have survived to day D:90)
same,interval between doses for maximum efficacy (IDME),leukemia L 1210; i.v.,presence of an IDME
same,percentage of mice surviving to day D:100 (in words),leukemia L 1210; i.v.,high percentage
same,antitumoral activity (in words),leukemia L 1210; i.v.,high activity
same,concentration at 1.5 h,[1]; after CNCC 500 mg/m^2 p.o.,12.7 µM
same,concentration at 1 h,[1]; after CNCC 500 mg/m^2 p.o.,19 µM
same,concentration at 2 h,[1]; after CNCC 500 mg/m^2 p.o.,9.9 µM
same,concentration,[1]; after CNCC 500 mg/m^2 p.o.,6.7 µM
same,concentration at 4.5 h,[1]; after CNCC 500 mg/m^2 p.o.,3.5 µM
same,concentration at 5 min,[1]; after CNCC 500 mg/m^2 p.o.,5.3 µM
same,concentration at 0.25 h,[1]; after CNCC 500 mg/m^2 p.o.,13.2 µM
same,concentration at 0.5 h,[1]; after CNCC 500 mg/m^2 p.o.,35.7 µM
same,concentration at 0.75 h,[1]; after CNCC 500 mg/m^2 p.o.,16.5 µM
same,concentration at 1.5 h,[1]; [5],10.8 µM
same,concentration at 1 h,[1]; [5],29.9 µM
same,concentration at 2 h,[1]; [5],6.3 µM
same,concentration,[1]; [5],2.9 µM
same,concentration at 4.5 h,[1]; [5],0.9 µM
same,concentration at 5 min,[1]; [5],83 µM
same,concentration at 0.25 h,[1]; [5],81.5 µM
same,concentration at 0.5 h,[1]; [5],66.3 µM
same,concentration at 0.75 h,[1]; [5],43.7 µM
same,concentration at 1.5 h,[2]; after CNCC 500 mg/m^2 p.o.,4.2 µM
same,concentration at 2 h,[2]; after CNCC 500 mg/m^2 p.o.,3.5 µM
same,concentration,[2]; after CNCC 500 mg/m^2 p.o.,2 µM
same,concentration at 4.5 h,[2]; after CNCC 500 mg/m^2 p.o.,1 µM
same,concentration at 5 min,[2]; after CNCC 500 mg/m^2 p.o.,1.8 µM
same,concentration at 0.25 h,[2]; after CNCC 500 mg/m^2 p.o.,5 µM
same,concentration at 0.5 h,[2]; after CNCC 500 mg/m^2 p.o.,6 µM
same,concentration at 0.75 h,[2]; after CNCC 500 mg/m^2 p.o.,5.5 µM
same,concentration at 1.5 h,[2]; [5],9.2 µM
same,concentration at 1 h,[2]; [5],14.2 µM
same,concentration at 2 h,[2]; [5],6.3 µM
same,concentration,[2]; [5],2.9 µM
same,concentration at 4.5 h,[2]; [5],0.7 µM
same,concentration at 5 min,[2]; [5],11 µM
same,concentration at 0.25 h,[2]; [5],11.7 µM
same,concentration at 0.5 h,[2]; [5],16.5 µM
same,concentration at 0.75 h,[2]; [5],15 µM
same,concentration at 1.5 h,[3]; after CNCC 500 mg/m^2 p.o.,11.4 µM
same,concentration at 1 h,[3]; after CNCC 500 mg/m^2 p.o.,8.1 µM
same,concentration at 2 h,[3]; after CNCC 500 mg/m^2 p.o.,6.4 µM
same,concentration,[3]; after CNCC 500 mg/m^2 p.o.,6.5 µM
same,concentration at 4.5 h,[3]; after CNCC 500 mg/m^2 p.o.,2.2 µM
same,concentration at 5 min,[3]; after CNCC 500 mg/m^2 p.o.,0.9 µM
same,concentration at 0.25 h,[3]; after CNCC 500 mg/m^2 p.o.,3.2 µM
same,concentration at 0.5 h,[3]; after CNCC 500 mg/m^2 p.o.,5.4 µM
same,concentration at 0.75 h,[3]; after CNCC 500 mg/m^2 p.o.,7.2 µM
same,concentration at 1.5 h,[3]; [5],12.9 µM
same,concentration at 1 h,[3]; [5],14.2 µM
same,concentration at 2 h,[3]; [5],7.8 µM
same,concentration,[3]; [5],2.9 µM
same,concentration at 5 min,[3]; [5],8.5 µM
same,concentration at 0.25 h,[3]; [5],17.7 µM
same,concentration at 0.5 h,[3]; [5],22.5 µM
same,concentration at 0.75 h,[3]; [5],11.4 µM
same,bioavailability compared with CNCC (in words),[4],greater than that of CNCC
same,plasma concentrations after A1 A2 compared with after CNCC (in words),[4],much higher
same,plasma concentration after A1 A2 compared with after CNCC (in words),[4]; preliminary data,considerably greater
